Source: the NIST ThermoML archive (doi:10.1021/je500431h)

Assay: xn = mol fraction of the nth substance listed
Settings: 101 kPa, Liquid; for mass density: Pycnometric method; for electrical conductivity: conductivity meter LF 340 and a standard conductivity cell TetraCon

C=CCn1cc[n+](CCOC)c1.O=S(=O)([N-]S(=O)(=O)C(F)(F)F)C(F)(F)F + O=S(=O)([N-]S(=O)(=O)C(F)(F)F)C(F)(F)F.[Li+]
Settings	electrical conductivity [S/m]	mass density [kg/m3]	viscosity [mPa·s]
308 K, x2 = 0.176	–	1480.1	56.2
308 K, x2 = 0.2508	–	1505.3	72.2
308 K, x2 = 0.3254	–	1525.3	116.4
308.2 K, x2 = 0.176	0.3	–	–
308.2 K, x2 = 0.4001	0.0856	–	–
308.7 K, x2 = 0	0.546	–	–
308.7 K, x2 = 0.2508	0.228	–	–
308.8 K, x2 = 0.3254	0.16	–	–
308.9 K, x2 = 0.1007	0.425	–	–
309 K, x2 = 0	–	1437	23.7
309 K, x2 = 0.1007	–	1459.7	38
309.2 K, x2 = 0.4001	–	–	221.6
309.24 K, x2 = 0.4001	–	1551.1	–
313 K, x2 = 0.176	–	1475.4	44.4
313 K, x2 = 0.2508	–	1500.4	57.1
313 K, x2 = 0.3254	–	1520.3	89.4
313.3 K, x2 = 0	0.627	–	–
313.4 K, x2 = 0.4001	0.113	–	–
313.5 K, x2 = 0.3254	0.2	–	–
313.9 K, x2 = 0.176	0.372	–	–
314 K, x2 = 0	–	1432.3	20.3
314 K, x2 = 0.4001	–	1546.3	168.3
314.4 K, x2 = 0.1007	0.514	–	–
314.4 K, x2 = 0.2508	0.284	–	–
315 K, x2 = 0.1007	–	1453.9	27.9
317 K, x2 = 0	–	1429.6	17.8
317 K, x2 = 0.2508	–	1496.4	47.8
317 K, x2 = 0.3254	–	1516.3	75.1
317.9 K, x2 = 0.2508	0.327	–	–
318 K, x2 = 0.176	–	1470.7	35.8
318 K, x2 = 0.4001	–	1542.3	138.5
318.1 K, x2 = 0	0.72	–	–
318.1 K, x2 = 0.4001	0.141	–	–
319 K, x2 = 0.3254	0.248	–	–
319.2 K, x2 = 0.1007	0.596	–	–
319.5 K, x2 = 0.1007	–	1449.6	22.8
319.6 K, x2 = 0.176	0.453	–	–
322.4 K, x2 = 0.176	0.493	–	–
323 K, x2 = 0.176	–	1466	29.6
323 K, x2 = 0.3254	–	1510.4	56.8
323.3 K, x2 = 0	0.828	–	–
323.5 K, x2 = 0	–	1423.5	14.6
323.9 K, x2 = 0.3254	0.3	–	–
324 K, x2 = 0.2508	–	1489.5	37.4
324 K, x2 = 0.4001	–	1536.2	100.9
324.1 K, x2 = 0.4001	0.183	–	–
324.4 K, x2 = 0.1007	0.694	–	–
324.6 K, x2 = 0.2508	0.41	–	–
325.2 K, x2 = 0.1007	–	1444.2	19.6
327 K, x2 = 0.3254	–	1506.5	49
327.2 K, x2 = 0.1007	–	1442.3	17.7
327.2 K, x2 = 0.176	–	1462	25.4
327.5 K, x2 = 0.4001	0.214	–	–
327.9 K, x2 = 0	0.935	–	–
328 K, x2 = 0	–	1419.4	13.1
328 K, x2 = 0.2508	–	1485.6	32.3
328 K, x2 = 0.4001	–	1532.2	82.1
328.5 K, x2 = 0.2508	0.467	–	–
328.7 K, x2 = 0.176	0.588	–	–
328.8 K, x2 = 0.3254	0.353	–	–
328.9 K, x2 = 0.1007	0.778	–	–
